Measurements: the supplement of paper PMC13380429

Key:
[1] = test system: A549-ACE2 infected with SARS-CoV-2; test: morphology score (similarity to uninfected cells); higher = more like uninfected cells; conditions: 24 h
[2] = test system: A549-ACE2; test: drug-induced phospholipidosis relative to tamoxifen; higher = more phospholipidosis
[3] = test system: Vero E6; test: relative viability EC50 (midpoint between 100% and the lowest measured viability); higher = less toxic; conditions: 72 h
[4] = test system: U2OS; test: as above; conditions: 72 h
[5] = test system: Calu-3; test: as above; conditions: 72 h
[6] = test system: A549-ACE2 infected with SARS-CoV-2; test: cell count relative to DMSO; higher = less toxic; conditions: 24 h
[7] = test system: A549-ACE2 infected with SARS-CoV-2; test: SARS-CoV-2 infection rate relative to DMSO; higher = more infection; conditions: 24 h
[8] = test system: Vero E6; test: drug sensitivity score (DSS) for viability; higher = more toxic; extreme values may be limits of the assay; conditions: 72 h
[9] = test system: U2OS; test: as above; conditions: 72 h
[10] = test system: HepG2; test: as above; conditions: 72 h
[11] = test system: Calu-3; test: as above; conditions: 72 h
[12] = test system: Caco-2; test: as above; conditions: 72 h
[13] = test system: A549-ACE2; test: phospholipidosis EC50; higher = less potent phospholipidosis inducer
[14] = test system: Vero E6; test: cell viability relative to DMSO; higher = less toxic; conditions: 72 h
[15] = test system: U2OS; test: as above; conditions: 72 h
[16] = test system: HepG2; test: as above; conditions: 72 h
[17] = test system: Calu-3; test: as above; conditions: 72 h
[18] = test system: Caco-2; test: as above; conditions: 72 h
[19] = test system: HepG2; test: relative viability EC50 (midpoint between 100% and the lowest measured viability); higher = less toxic; conditions: 72 h
[20] = test system: Caco-2; test: as above; conditions: 72 h

CC/C(=C(\c1ccc(O)cc1)c1ccc(OCCN(C)C)cc1)c1ccccc1 [afimoxifene]
Conditions	SARS-CoV-2 infection rate [%]	cell count [%]	cell viability [%]	morphology score	phospholipidosis EC50 [µM]
[1], 0.3 µM	–	–	–	-0.03	–
[1], 3 µM	–	–	–	0.75	–
[1], 10 µM	–	–	–	0.83	–
[1], 30 µM	–	–	–	-0.14	–
[6], 0.3 µM	–	99	–	–	–
[6], 3 µM	–	121	–	–	–
[6], 10 µM	–	117	–	–	–
[6], 30 µM	–	81	–	–	–
[7], 0.3 µM	112	–	–	–	–
[7], 3 µM	47	–	–	–	–
[7], 10 µM	13	–	–	–	–
[7], 30 µM	68	–	–	–	–
[13], 24 h	–	–	–	–	1.78
[13], 48 h	–	–	–	–	2.82
[13], 72 h	–	–	–	–	3.95
[14], 1 nM	–	–	93.7	–	–
[14], 10 nM	–	–	98.9	–	–
[14], 100 nM	–	–	99.8	–	–
[14], 1000 nM	–	–	104	–	–
[14], 10000 nM	–	–	81.2	–	–
[15], 1 nM	–	–	96.8	–	–
[15], 10 nM	–	–	94.8	–	–
[15], 100 nM	–	–	102	–	–
[15], 1000 nM	–	–	97.2	–	–
[15], 10000 nM	–	–	77.6	–	–
[16], 1 nM	–	–	94.6	–	–
[16], 10 nM	–	–	111	–	–
[16], 100 nM	–	–	90.7	–	–
[16], 1000 nM	–	–	112	–	–
[16], 10000 nM	–	–	54.3	–	–
[17], 1 nM	–	–	91.7	–	–
[17], 10 nM	–	–	103	–	–
[17], 100 nM	–	–	102	–	–
[17], 1000 nM	–	–	105	–	–
[17], 10000 nM	–	–	25.2	–	–
[18], 1 nM	–	–	93	–	–
[18], 10 nM	–	–	91.2	–	–
[18], 100 nM	–	–	95.5	–	–
[18], 1000 nM	–	–	94	–	–
[18], 10000 nM	–	–	66.6	–	–

drug-induced phospholipidosis [%], [2]
Conditions	0.3 µM	0.833333 µM	3.33333 µM	6.66667 µM	10 µM	30 µM
24 h	3.39	11.5	51	69.1	81.9	36.9
48 h	3.38	6.29	53.4	74.8	82.8	–
72 h	5.01	4.34	43.1	75.7	88.4	–

Conditions	drug sensitivity score	relative viability EC50 [µM]
[3]	–	> 10
[4]	–	> 10
[5]	–	3.52
[8]	0.3	–
[9]	1.2	–
[10]	1.8	–
[11]	3.7	–
[12]	2.5	–

CC(=O)OC[C@H]1O[C@@H]([S-])[C@H](OC(C)=O)[C@@H](OC(C)=O)[C@@H]1OC(C)=O.CCP(CC)CC.[Au+] [auranofin]
Conditions	SARS-CoV-2 infection rate, [7] [%]	cell count, [6] [%]	cell viability, [14] [%]	cell viability, [15] [%]	cell viability, [16] [%]	cell viability, [17] [%]	cell viability, [18] [%]	morphology score, [1]
1 nM	–	–	92.1	101	90.6	100	99.9	–
10 nM	–	–	94.2	98.2	99.4	92.8	94.2	–
0.1 µM	96	98	–	–	–	–	–	0.03
100 nM	–	–	93.6	98.5	102	106	101	–
0.3 µM	91	103	–	–	–	–	–	0.11
1 µM	86	98	–	–	–	–	–	0.34
1000 nM	–	–	88.1	7.5	72.1	117	58.6	–
3 µM	64	90	–	–	–	–	–	0.39
10000 nM	–	–	0	0	-0.1	1.2	0	–

drug-induced phospholipidosis [%], [2]
Conditions	0.3 µM	0.833333 µM	3.33333 µM	6.66667 µM
24 h	0.97	-3.21	5.44	2.76
48 h	3.04	-1.45	6.04	–
72 h	2.56	0.634	–	–

Conditions	drug sensitivity score	relative viability EC50 [µM]
[3]	–	2.19
[4]	–	0.383
[5]	–	3.86
[8]	7.5	–
[9]	16.9	–
[10]	9.7	–
[11]	4.5	–
[12]	11	–
[19]	–	1.46
[20]	–	1.15

CCN(CC)C(=S)S [ditiocarb-sodium-trihydrate]
Conditions	SARS-CoV-2 infection rate, [7] [%]	cell count, [6] [%]	cell viability, [14] [%]	cell viability, [15] [%]	cell viability, [16] [%]	cell viability, [17] [%]	cell viability, [18] [%]	morphology score, [1]
1 nM	–	–	92.8	101	97.5	105	94.1	–
10 nM	–	–	102	98.9	97.9	93.1	97	–
100 nM	–	–	96.3	101	100	108	89.3	–
0.3 µM	108	97	–	–	–	–	–	-0.22
1000 nM	–	–	103	101	108	89	89.2	–
3 µM	98	102	–	–	–	–	–	0.08
10 µM	95	107	–	–	–	–	–	0.19
10000 nM	–	–	99	85.5	35.6	70.2	16.7	–
30 µM	62	106	–	–	–	–	–	0.61

drug-induced phospholipidosis [%], [2]
Conditions	0.3 µM	0.833333 µM	3.33333 µM	6.66667 µM	10 µM
24 h	0.51	1.07	-2.14	-0.7	-0.24
48 h	2.4	1.02	0.85	0.97	0.53
72 h	3.87	-0.805	0.971	1.39	0.827

Conditions	drug sensitivity score	relative viability EC50 [µM]
[3]	–	> 10
[4]	–	> 10
[8]	0	–
[9]	0.2	–
[10]	3	–
[11]	2.8	–
[12]	6.4	–
[19]	–	3.73
[20]	–	2.11

Clc1cc(Cl)c(OCC#CI)cc1Cl [haloprogin]
Conditions	SARS-CoV-2 infection rate, [7] [%]	cell count, [6] [%]	cell viability, [14] [%]	cell viability, [15] [%]	cell viability, [16] [%]	cell viability, [17] [%]	cell viability, [18] [%]	morphology score, [1]
1 nM	–	–	95.3	95.6	91.8	84	109	–
10 nM	–	–	96.9	95.2	104	88.5	90.2	–
100 nM	–	–	90.6	97.5	116	99.9	95.1	–
0.3 µM	97	100	–	–	–	–	–	0.18
1000 nM	–	–	101	95.2	91	95.9	130	–
3 µM	83	100	–	–	–	–	–	0.44
10 µM	71	79	–	–	–	–	–	0.28
10000 nM	–	–	93.9	47.1	59.5	110	97	–
30 µM	15	15	–	–	–	–	–	0.1

drug-induced phospholipidosis [%], [2]
Conditions	0.3 µM	0.833333 µM	3.33333 µM	6.66667 µM	10 µM
24 h	4.53	2.7	5.33	17.8	23.3
48 h	-1.51	-0.64	1.31	14.4	7.74
72 h	5.04	-1.02	-0.916	2.19	-6.87

Conditions	drug sensitivity score	relative viability EC50 [µM]
[3]	–	> 10
[4]	–	2.42
[5]	–	> 10
[8]	0	–
[9]	3.6	–
[10]	3.4	–
[11]	0	–
[12]	0	–
[20]	–	> 10

Cc1ccc(NC(=O)c2ccc(CN3CCN(C)CC3)cc2)cc1Nc1nccc(-c2cccnc2)n1 [imatinib]
Conditions	morphology score, 0.3 µM	morphology score, 3 µM	morphology score, 10 µM	morphology score, 30 µM	phospholipidosis EC50, 24 h [µM]	phospholipidosis EC50, 48 h [µM]	phospholipidosis EC50, 72 h [µM]
[1]	0.28	0.55	0.73	-0.03	–	–	–
[13]	–	–	–	–	6.11	13	10

Conditions	drug sensitivity score
[8]	0
[9]	0
[10]	2.4
[11]	0.1
